Where two headings read alike, the source gives them in different places.
Key:
[1] = β-sheet content by ATR-FT-IR; format: physicochemical; settings: for b -sheet / %: Fig. S7 panel A, β-sheet content by ATR-FT-IR
Outline: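 First, PNF was ultrafiltered (3 kDa MWCO, 16200 x g, 45 min, 4 °C). Next, filtrate and unfiltered sample were lyophilized and taken up in DMSO. Then fluorescamine was added for 20 min at RT before reading ex 365/em 470 nm. β-sheet: ATR FT-IR of lyophilized 1 mg/mL PNF.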

[2] = Zeta-potential measurement; format: physicochemical
Outline: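 Charge on peptide aggregates was assessed by electrophoretic mobility in 1 mM KCl, converted per Smoluchowski. Prior aggregation: 1 mg/mL, pH 7.4 PBS, 1 d, RT.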

[3] = format: physicochemical; set-up: key to Fibril / Fibril Formation / TEM 2cat / Fibril: 1 = fibrils present; 0 non-fibrillar structures; settings: for Fibril / Fibril Formation: 1 mg/mL, uranyl acetate stain, qualitative
[4] = Turbidity, derived count rate of scattered light; format: physicochemical; settings: for Count Rate: derived count rate of scattered light (turbidity); for Log10 Count Rate: turbidity, derived count rate of scattered light, data of Figure 2D
[5] = Turbidity, derived count rate of scattered light; format: physicochemical; settings: for Count Rate / kcps: derived count rate of scattered light at 633 nm, 173°, from zeta-potential measurement, 0.1 mg/mL in 1 mM KCl after 1 d at 1 mg/mL in PBS, turbidity / microscopic aggregation, mean of triplicate
Outline: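 One-day room-temperature aggregation at 1 mg/mL in PBS (pH 7.4) preceded measurement; samples then went into 1 mM KCl. Triplicates per sample, two independent experiments averaged.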

[6] = zeta potential of peptide assemblies
[7] = zeta-potential of peptide, source data of Figure 2C
[8] = zeta-potential of the peptide assemblies, mean, Figure 3A source data
[9] = Fig S10 panel D, fibril category by TEM
[10] = FigS12 panel A, fibril category by TEM
[11] = TEM, 1 = fibrils present, 0 = non-fibrillar
[12] = TEM, 1 = fibrils present, 0 = non-fibrillar structures
[13] = Log10 of derived count rate of scattered light (turbidity)
[14] = log10 of derived count rate of scattered light (turbidity)
[15] = turbidity, Log10 of derived count rate of scattered light, Figure 3A source data
[16] = category: fibrils present or non-fibrillar

Substance | b -sheet / % [1] [%] | Zeta-Pot. [2, 6] | Zeta-Potential / mV [2, 7] [mV] | Zeta-Potential / mV [2, 8] [mV] | TEM 2cat [3, 9] | TEM 2cat [3, 10] | Fibril ([3]; FigS12 panel B, TEM) | Fibril / Fibril Formation ([3]; TEM) | Fibril [3, 11] | Fibril [3, 12] | Count Rate [4] | Log10 Count Rate [4] | Log10 Count Rate [5, 13] | Count Rate / kcps [5] [kcps] | Log10 Count Rate [5, 14] | Log10 Count Rate [5, 15] | Fibril ([3]; Fig S10 panel E) | TEM 2cat [3, 16] | other results
KIEIQINM | 42.99 | -0.35 | -6.992 | -0.35 | 1 | 1 | 1 | 1 | 1 | 1 | 274.8 | 2.439 | 2.439 | 275 | 2.439 | 2.439 | – | – | –
KIKIKIKI | 40.46 | 5.46 | 5.997 | 5.46 | 0 | 0 | 0 | 0 | 0 | 0 | 155.1 | 2.191 | 2.191 | 155 | 2.191 | 2.191 | – | – | –
KIKIKIKIWW | 48.82 | 15.4 | 15.83 | 15.4 | 0 | – | – | 0 | 0 | 0 | 9436 | 3.975 | 3.975 | 9436 | 3.975 | 3.975 | 0 | 0 | beta sheet ([1]; peptides with TEM 2cat 0): 49; Zeta Count Rate ([5]; peptides with TEM 2cat 0): 9436 kcp
KIKIKIKIWWWW | 37.79 | 15.2 | 14.82 | 15.2 | 0 | – | – | 0 | 0 | 0 | 12420.6 | 4.094 | 4.094 | 12421 | 4.094 | 4.094 | – | 0 | Zeta Count Rate ([5]; peptides with TEM 2cat 0): 12421 kcp
KIKIKIQI | 40.16 | 6.97 | 9.885 | 6.97 | 1 | 1 | 1 | 1 | 1 | 1 | 999.1 | 3 | 3 | 999 | 3 | 3 | 1 | – | –
KIKIKIQINMWQ | 39.61 | – | 13 | 13.1 | 1 | – | – | 1 | 1 | 1 | 1603.1 | 3.205 | 3.205 | 1603 | 3.205 | 3.205 | – | 1 | Zeta-Pot. [2]: 13.1
KIKIQIC | 52.93 | 19.93 | 19.97 | 19.93 | 1 | – | – | 1 | 1 | 1 | 980.7 | 2.992 | 2.992 | 981 | 2.992 | 2.992 | 1 | 1 | FTIR ß-sheet content [1]: 52.93%; Log10 Count Rate ([5]; logarithm of count rate in kcps): 2.992; Zeta Count Rate ([5]; mean of the 3 replicates): 980.7 kcps; Zeta Count Rate ([5]; replicate 1): 1115.50 kcps; Zeta Count Rate ([5]; replicate 2): 1268.60 kcps; Zeta Count Rate ([5]; replicate 3): 557.90 kcps

From paper PMC10447463, “Data-mining unveils structure–property–activity correlation of viral infectivity enhancing self-assembling peptides” (Nature Communications, 2023)
